Experimental data taken from patent US20140364454A1, “METAL-CHELATING COMPOUNDS HAVING AT LEAST ONE POLYAMINO CHAIN” (UNIVERSITE DE RENNES I, priority 2011, published 2014).

Experiments:
[1] = tested on: L-ferritin and transferrin receptor genes; experiment: RT-qPCR of iron metabolism genes in Caco-2 cells; type: cell-based, human; details: Caco-2 in proliferative phase, 10 micromoles per liter, 72 hours
Protocol: After treatment for 72 hours of the Caco-2 cells in proliferative phase by the Quilamine HQ1-44 and ICL670 in a concentration of 10 micromoles per liter, an analysis is carried out by real-time polymerase chain reaction (RT-qPCR) technique of the expression of the two main genes for regulating intra-cell iron metabolism, that of L-ferritin, the iron-storing protein, and that of the transferrin receptor, which is the iron-importing protein of the membrane. The DNAc (complementary dioxyribonucleic acid) synthesized during the reverse transcription are amplified by the qPCR (quantity of polymerization chain reaction) to quantify the expression of the mNRA (messenger ribonucleic acid) of the genes involved in iron metabolism.

[2] = tested on: mutant cell line CHO-MG without PTS; experiment: Anti-proliferative effect on CHO-MG cells without PTS, counting of cell nuclei; type: cell-based, hamster; details: for IC50: 72 h treatment; for Ratio IC50 (CHO-MG/CHO): selectivity of recognition by the PTS
Text: The IC50 inhibitor concentration corresponding to the concentration in Quilamines enables the inhibition at 50% of the cell proliferation was deduced from the dose-effect curves of numeration of the nuclei of the living cells on the CHO and CHO-MG cell lines. These dose-effect curves are sometimes bi-phase curves as in the case of Quilamine HQ1-44 which has an anti-proliferative constituent (without concomitant release of LDH in supernatant) in the range of concentrations of 0.4 to 3 micromoles per liter and a second cytotoxic constituent accompanied by membrane toxicity expressed by the release of LDH for concentrations of over […]. The lower the value of IC50, the greater the efficiency of the anti-proliferative effect of the tested chelators.
Furthermore, the ratio of the IC50 inhibitor concentrations found for the CHO-MG and the CHO cell lines (Ratio IC50 (CHO-MG/CHO)) was computed for several Quilamines according to the invention. This ratio makes it possible to estimate the selectivity of recognition of the different chelators by the PTS: the higher the ratio, the more clearly is the chelator recognized by the PTS. When this ratio is close to 1, the tested chelator is not recognized or is little recognized by the PTS.

[3] = tested on: CHO cells; experiment: Cytotoxic effect on CHO cells, LDH release in supernatants; details: hamster, 72 h
Protocol: The in vitro efficacy of different Quilamines was tested on a wild cell line (CHO) of hamster ovarian cells having PTS and a mutant cell line CHO-MG without PTS. The two cell types CHO and CHO-MG were treated, 24 hours after being seeded in 96-well microplates, by concentrations of different Quilamines ranging from 0.1 to 400 micromoles per liter. The cytostatic (anti-proliferative) effects and cytotoxic effects of Quilamine after 72 hours' treatment of the cells were assessed respectively by counting cell nuclei after DNA marking by the Hoechst 33342 fluorescent intercalant dye and by analysis of membrane damage detected by the dosing of the lactate dehydrogenase activity (LHD) in the supernatants.
A comparison was made of the cytostatic or anti-proliferative action and the cytotoxic action for 72 h of treatment by Quilamine HQ1-44 and 8-hydroxyquinoline and ICL670, on the CHO cell lines in the presence and without the presence of exogenous iron, in the form of Fe(III) citrate in a concentration of 20 micromoles per liter. The results obtained are shown in FIG. 4, FIG. 4A relating to the results on cell viability and FIG. 4B relating to the results on cell toxicity.

[4] = tested on: HepG2 cells; experiment: Anti-proliferative effect on HepG2 cells (nuclei count or SDH activity); type: cell-based, human; details: HepG2, presence of exogenous iron
[5] = Continuous variation method, absorption of the Quilamine-Fe(III) complex at 580 nm; type: physicochemical; details: physiological pH
Protocol: At physiological pH, the Quilamine forms a Quilamine-Fe(III) complex preferably having a ligand:metal stoichiometry of 2/1. The ligand:metal stoichiometry can for example be determined by the continuous variation method, using the characteristic transition in the absorption spectrum of the Quilamine-Fe(III) complex at 580 nm, for chelator and iron concentrations ranging from 0 to 500 micromoles per liter.
The interaction of Quilamine HQ1-44 with iron (Fe3+) was assessed by means of a characteristic transition at 580 nm, observed in the absorption spectrum of the complex of Quilamine HQ1-44 with Fe(III). The continuous variation method consist in measuring the quantity of complex formed between Quilamine and Fe(III) deduced from the value of absorption at 580 nm, in bringing about a variation of the ratio of the concentrations in Quilamine/Quilamine+Fe(III) for a total concentration of Quilamine+Fe(III) that is constant and equal to 100 micromoles per liter (Tris/HCl buffer 100 millimoles per liter, pH 7.4).

[6] = Potentiometry: stability constants and pFe3+ of the iron complex; type: physicochemical
Protocol: The complexation affinity of Quilamine with the metal ion in the organism reflects the chelating capacity or chelating power of Quilamine. This affinity can be assessed by measuring the value of pW corresponding to −log of the concentration in free metal ion W, i.e. non-complexated by the Quilamine for a ratio of respective concentrations of Quilamine (10 micromoles per liter) and metal ion (1 micromole per liter) equal to 10, at 25° C. and pH 7.4. The higher the value of pW, the greater the affinity of Quilamine with metal ion. The affinity of Quilamine with iron in its ferric form (Fe(III)) and its ferrous form (Fe(II)) is measured respectively by pFe^3+ and pFe^2+ at physiological pH (pH=7.4), at 25° C.
Potentiometry measurements were made in thermostated titration cells at 25±0.1° C., using a Metrohm 702 SM Titrino titrator connected to a Metrohm 6.0233.100. The ligand solution is prepared in a concentration of ˜1.5×10^−3 moles per liter, the solution of Fe^3+ is made from FeCl3 and titrated by complexation with a standard solution of EDTA (ethylenediaminetetracetic acid). The sample for the measurement contained approximately 0.03 millimoles per liter of ligand in a volume of 30 ml where the ionic strength is maintained at 0.1 mole per liter in using KNO3 as a support electrolyte. During the titrations, Fe^3+ is added to 0.45 or 0.9 equivalents of ligand. Each titration consists of 150-200 equilibrium points with pH varying from 2.0 to 11.5, and is repeated at least twice. The thermodynamic constants are computed with the software […] and the speciation diagram of the species is done by the Hyss program.

| ligand/iron stoichiometry of the complex with Fe(III) [5] | Constant of stability (log K), species FeL ([6]; 25.0° C., I = 0.1 M in KNO3) | Constant of stability (log K), species FeL2 ([6]; 25.0° C., I = 0.1 M in KNO3) | Constant of stability (log K), species FeL2H ([6]; 25.0° C., I = 0.1 M in KNO3) | Constant of stability (log K), species FeL2H2 ([6]; 25.0° C., I = 0.1 M in KNO3) | Constant of stability (log K), species FeL2H3 ([6]; 25.0° C., I = 0.1 M in KNO3) | Constant of stability (log K), species FeL(OH) ([6]; 25.0° C., I = 0.1 M in KNO3) | Constant of stability (log K), species FeLH ([6]; 25.0° C., I = 0.1 M in KNO3) | Constant of stability (log K), species FeLH2 ([6]; 25.0° C., I = 0.1 M in KNO3) | pFe3+ ([6]; pH 7.4) | SMILES | expression of the genes for L-ferritin and the transferrin receptor [1] | IC50 ([2]; CHO-MG, 72 h) [µM] | Ratio IC50 (CHO-MG/CHO) [2] | chelator concentration giving cytotoxic effect with release of LDH [3] | influence of exogenous iron on the cytostatic effect [4] | IC50 [2] [µM] |
| --- | --- | --- | --- | --- | --- | --- | --- | --- | --- | --- | --- | --- | --- | --- | --- | --- |
|  |  |  |  |  |  |  |  |  |  | O=C(O)c1ccc(-n2nc(-c3ccccc3O)nc2-c2ccccc2O)cc1 [ICL670, reference compound] | do not significantly modify | 8 | 1 | over 10 micromoles per liter | inhibition |  |
| 2/1 | 25.92 | 7.8 | 10.2 | 8.0 | 8.2 | 7.37 | 6.65 | 2.88 | 27 | NCCCCNCCCCNCc1ccc2cccc(O)c2n1 [HQ1-44, 2-[4-(4-aminobutyl)aminobutyl]aminomethylquinolin-8-ol] | do not significantly modify | 344 | 249 |  |  | 344 |
